According to patent US6835734B2, “1,3-dioxolanes with antitussive activity” (Dompé S.p.A., priority 2000, dated 2004):

Experiments:
[1] = test system: male Dunkin-Hartley Guinea pigs; test: cough strokes after aerosol administration of the medicaments; format: in vivo, Guinea pig; details: aerosol with 1% (w/v) aqueous solution for 10 minutes, compared with saline aerosol controls
[2] = test system: male Dunkin-Hartley Guinea pigs; test: capsaicin aerosol-induced cough after intravenous administration; format: in vivo, Guinea pig; details: for recorded cough strokes / inhibition of the response to the tussigenic stimulus: 10 mg/kg intravenous, 0.0045% capsaicin aerosol 5 minutes after administration; for recorded cough strokes: during the 4 minute aerosol; for inhibition of the response to the tussigenic stimulus: strokes recorded during 4 minute aerosol
Experimental: The tests were carried out on male Dunkin-Hartley Guinea pigs (4-6 animals for group), which were subjected to aerosol of a 0.0045% (p/v) capsaicin aqueous solution [Lavezzo A., Pulm. Pharmacol., 5, 143-147, 1992; Gallico L. et al, Br. J. Pharmacol., 112, 795-800. 1994] 5 minutes after intravenous administration of 0.5 ml of a (−)-1,2-cyclohexylidene-3-(4-phenyl-piperazin-1-yl)-propane-1,2-diol fumarate solution (DF 1689A, 10 mg/kg) compared with 0.5 ml of a levodropropizine solution, pH 4.5 (10 mg/kg) and with an equal volume of saline solution (control).

| Structure (SMILES) | inhibitory effect on number of cough strokes [1] | recorded cough strokes [2] | inhibition of the response to the tussigenic stimulus [2] | inhibition on the tussigen stimulus induced by capsaicin aerosol ([2]; 15 minutes after the intravenous administration) | inhibition on the tussigen stimulus induced by capsaicin aerosol ([2]; 30 minutes after the intravenous administration) |
| --- | --- | --- | --- | --- | --- |
| OCC(O)CN1CCN(c2ccccc2)CC1 (single isomer, unassigned; (-)) [levodropropizine, (−) 3-(4-phenyl-piperazin-1-yl)-1,2-propanediol, reference compound] | about 35% | 5.17±0.54 | 43.6% | – | – |
| O=C(O)/C=C/C(=O)O.c1ccc(N2CCN(C[C@H]3COC4(CCCCC4)O3)CC2)cc1 [DF 1689A, S(−)-1,2-cyclohexylidene-3-(4-phenyl-piperazin-1-yl)propane-1,2-diol fumarate] | about 35% | 4.83±0.54 | 47.3% | 34.6% | 27.3% |
